Reference: ChEMBL document CHEMBL3751668, “A Pyrazolo[3,4-d]pyrimidin-4-amine Derivative Containing an Isoxazole Moiety Is a Selective and Potent Inhibitor of RET Gatekeeper Mutants” (J Med Chem, 2016)
pIC50: −log10 of the molar value.

Experiments:
[1] = Cytotoxicity against human Nthy-ori 3-1 cells after 10 days by MTT assay; format: cell-based
[2] = Cytotoxicity against mouse BAF3 cells after 48 hrs by MTT assay; format: cell-based
[3] = system: Proto-oncogene tyrosine-protein kinase receptor Ret (Homo sapiens), P07949 [C634W]; settings: TT
Description: Inhibition of RET C634W mutant in human TT cells assessed as cell growth inhibition after 10 days by MTT assay

[4] = target: T1, Proto-oncogene tyrosine-protein kinase receptor Ret (Homo sapiens, UniProt P07949); settings: BaF3
Description: Inhibition of wild type TEL-fused RET (unknown origin) expressed in mouse BA/F3 cells assessed as cell growth inhibition after 48 hrs by MTT assay

[5] = system: Proto-oncogene tyrosine-protein kinase receptor Ret (Homo sapiens), P07949 [V804M]; settings: BaF3
[6] = target: T1, Proto-oncogene tyrosine-protein kinase receptor Ret; test: Inhibition of human wild type RET by radiometric assay in presence of [gamma-33P]-ATP
[7] = target: Proto-oncogene tyrosine-protein kinase receptor Ret (Homo sapiens, UniProt P07949, V804M); test: Inhibition of human Ret V804M mutant by radiometric assay in presence of [gamma-33P]-ATP
TT [8] = test: Cytotoxicity against human TT cells assessed as suppression of anchorage-independent growth at 0.3 to 1 uM for 30 days by soft agar assay; format: functional
[9] = Cell cycle arrest in human Nthy-ori 3-1 cells at 1 to 10 uM after 24 hrs by […] staining-based flow cytometric analysis; settings: nthy-ori 3-1, 24 h
[10] = Induction of apoptosis in human Nthy-ori 3-1 cells at 1 to 10 uM after 48 hrs by annexinV/PI staining-based flow cytometric analysis; format: cell-based; settings: nthy-ori 3-1, 48 h
[11] = target: Proto-oncogene tyrosine-protein kinase receptor Ret (Homo sapiens, UniProt P07949, Y791F); test: Inhibition of human Ret Y791F mutant by radiometric assay in presence of [gamma-33P]-ATP
[12] = target: Proto-oncogene tyrosine-protein kinase receptor Ret (Homo sapiens, UniProt P07949, G691S); test: Inhibition of human Ret G691S mutant by radiometric assay in presence of [gamma-33P]-ATP
[13] = target: Proto-oncogene tyrosine-protein kinase receptor Ret (Homo sapiens, UniProt P07949, M918T); test: Inhibition of human Ret M918T mutant by radiometric assay in presence of [gamma-33P]-ATP
[14] = target: Proto-oncogene tyrosine-protein kinase receptor Ret (Homo sapiens, UniProt P07949, V804L); test: Inhibition of human Ret V804L mutant by radiometric assay in presence of [gamma-33P]-ATP
[15] = target: Proto-oncogene tyrosine-protein kinase receptor Ret (Homo sapiens, UniProt P07949, S891A); test: Inhibition of human Ret S891A mutant by radiometric assay in presence of [gamma-33P]-ATP
[16] = system: Proto-oncogene tyrosine-protein kinase receptor Ret (Homo sapiens), P07949 [S891A]; settings: BaF3
[17] = system: Proto-oncogene tyrosine-protein kinase receptor Ret (Homo sapiens), P07949 [V804L]; settings: BaF3
TT [18] = test: Cytotoxicity against human TT cells assessed as suppression of anchorage-independent growth at 1 uM for 30 days by soft agar assay; format: functional
[19] = Cell cycle arrest in human Nthy-ori 3-1 cells assessed as accumulation at G2 phase at 10 uM after 24 hrs by […] staining-based flow cytometric analysis; settings: nthy-ori 3-1, 24 h
[20] = Induction of apoptosis in human Nthy-ori 3-1 cells at 10 uM after 48 hrs by annexinV/PI staining-based flow cytometric analysis; format: cell-based; settings: nthy-ori 3-1, 48 h

T1 sequence (P07949 whole entry): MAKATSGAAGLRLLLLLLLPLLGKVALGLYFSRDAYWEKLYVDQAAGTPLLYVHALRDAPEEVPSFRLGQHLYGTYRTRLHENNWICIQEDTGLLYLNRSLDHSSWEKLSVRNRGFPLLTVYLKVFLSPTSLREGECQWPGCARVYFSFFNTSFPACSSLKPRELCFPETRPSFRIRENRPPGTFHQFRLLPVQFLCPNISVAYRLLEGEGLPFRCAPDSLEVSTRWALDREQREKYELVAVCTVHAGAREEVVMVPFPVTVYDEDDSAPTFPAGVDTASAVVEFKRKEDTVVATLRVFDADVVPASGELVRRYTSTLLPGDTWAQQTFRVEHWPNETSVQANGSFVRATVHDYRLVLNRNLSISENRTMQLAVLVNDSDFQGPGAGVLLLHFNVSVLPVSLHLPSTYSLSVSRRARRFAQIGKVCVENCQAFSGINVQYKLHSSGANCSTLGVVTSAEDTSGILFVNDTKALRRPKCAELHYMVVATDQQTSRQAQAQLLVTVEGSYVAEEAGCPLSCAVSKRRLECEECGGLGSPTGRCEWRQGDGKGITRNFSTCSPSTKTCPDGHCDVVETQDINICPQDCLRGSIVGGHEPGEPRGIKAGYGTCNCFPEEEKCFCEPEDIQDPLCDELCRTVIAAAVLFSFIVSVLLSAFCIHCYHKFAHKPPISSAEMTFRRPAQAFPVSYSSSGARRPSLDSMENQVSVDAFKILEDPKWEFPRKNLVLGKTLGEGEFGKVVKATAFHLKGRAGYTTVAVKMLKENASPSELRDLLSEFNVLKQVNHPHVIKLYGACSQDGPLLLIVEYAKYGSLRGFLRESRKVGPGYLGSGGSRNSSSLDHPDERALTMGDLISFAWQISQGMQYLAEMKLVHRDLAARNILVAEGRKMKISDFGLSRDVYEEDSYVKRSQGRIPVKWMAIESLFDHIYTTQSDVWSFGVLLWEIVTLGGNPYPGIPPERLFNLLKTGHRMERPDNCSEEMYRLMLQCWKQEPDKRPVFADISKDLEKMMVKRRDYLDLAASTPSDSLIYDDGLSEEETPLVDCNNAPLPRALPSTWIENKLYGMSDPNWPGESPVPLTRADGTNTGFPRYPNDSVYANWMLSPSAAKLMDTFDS
Proto-oncogene tyrosine-protein kinase receptor Ret (Homo sapiens), P07949 [V804M], sequence (P07949 whole entry V804M): as the sequence (P07949 whole entry) above, with V804M counted along it
Proto-oncogene tyrosine-protein kinase receptor Ret (Homo sapiens), P07949 [C634W], sequence (P07949 whole entry C634W): as the sequence (P07949 whole entry) above, with C634W counted along it
Proto-oncogene tyrosine-protein kinase receptor Ret (Homo sapiens, UniProt P07949, V804M), sequence (P07949 29-1114 V804M limits assumed): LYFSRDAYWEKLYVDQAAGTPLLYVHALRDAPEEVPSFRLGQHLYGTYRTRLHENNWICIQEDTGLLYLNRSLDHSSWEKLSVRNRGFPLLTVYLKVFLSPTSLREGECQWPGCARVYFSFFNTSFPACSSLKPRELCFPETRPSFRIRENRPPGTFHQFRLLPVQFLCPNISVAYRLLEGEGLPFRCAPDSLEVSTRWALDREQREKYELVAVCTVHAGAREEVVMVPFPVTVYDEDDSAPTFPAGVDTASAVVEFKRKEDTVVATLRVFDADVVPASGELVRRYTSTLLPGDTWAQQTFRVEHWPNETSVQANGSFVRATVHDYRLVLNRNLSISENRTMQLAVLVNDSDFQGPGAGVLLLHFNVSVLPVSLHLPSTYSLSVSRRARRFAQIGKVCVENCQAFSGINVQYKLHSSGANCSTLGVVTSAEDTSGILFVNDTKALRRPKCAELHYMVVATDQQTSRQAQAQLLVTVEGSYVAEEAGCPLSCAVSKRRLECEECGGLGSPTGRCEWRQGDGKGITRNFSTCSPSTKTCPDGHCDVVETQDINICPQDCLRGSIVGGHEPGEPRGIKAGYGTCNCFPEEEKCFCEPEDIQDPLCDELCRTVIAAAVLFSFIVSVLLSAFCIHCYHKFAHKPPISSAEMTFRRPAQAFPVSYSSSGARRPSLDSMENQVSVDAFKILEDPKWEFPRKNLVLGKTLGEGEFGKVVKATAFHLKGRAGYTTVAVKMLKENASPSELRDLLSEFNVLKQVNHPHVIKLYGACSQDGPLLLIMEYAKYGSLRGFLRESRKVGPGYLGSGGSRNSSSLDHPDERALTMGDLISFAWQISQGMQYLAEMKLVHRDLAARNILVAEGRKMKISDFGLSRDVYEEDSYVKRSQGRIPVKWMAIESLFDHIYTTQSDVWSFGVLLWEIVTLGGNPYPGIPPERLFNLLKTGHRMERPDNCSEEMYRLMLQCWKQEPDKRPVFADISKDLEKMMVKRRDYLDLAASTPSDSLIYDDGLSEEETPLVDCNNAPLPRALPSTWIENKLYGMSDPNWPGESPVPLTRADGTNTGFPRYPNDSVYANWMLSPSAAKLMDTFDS
Proto-oncogene tyrosine-protein kinase receptor Ret (Homo sapiens), P07949 [V804L], sequence (P07949 whole entry V804L): as the sequence (P07949 whole entry) above, with V804L counted along it
Proto-oncogene tyrosine-protein kinase receptor Ret (Homo sapiens), P07949 [S891A], sequence (P07949 whole entry S891A): as the sequence (P07949 whole entry) above, with S891A counted along it
Proto-oncogene tyrosine-protein kinase receptor Ret (Homo sapiens, UniProt P07949, V804L), sequence (P07949 29-1114 V804L limits assumed): as the sequence (P07949 29-1114 V804M limits assumed) above, with M776L counted along it
Proto-oncogene tyrosine-protein kinase receptor Ret (Homo sapiens, UniProt P07949, S891A), sequence (P07949 29-1114 S891A limits assumed): as the sequence (P07949 29-1114 V804M limits assumed) above, with M776V, S863A counted along it
Proto-oncogene tyrosine-protein kinase receptor Ret (Homo sapiens, UniProt P07949, M918T), sequence (P07949 29-1114 M918T limits assumed): as the sequence (P07949 29-1114 V804M limits assumed) above, with M776V, M890T counted along it
Proto-oncogene tyrosine-protein kinase receptor Ret (Homo sapiens, UniProt P07949, G691S), sequence (P07949 29-1114 G691S limits assumed): as the sequence (P07949 29-1114 V804M limits assumed) above, with G663S, M776V counted along it
Proto-oncogene tyrosine-protein kinase receptor Ret (Homo sapiens, UniProt P07949, Y791F), sequence (P07949 29-1114 Y791F limits assumed): as the sequence (P07949 29-1114 V804M limits assumed) above, with Y763F, M776V counted along it

SMILES | GI50 at 240 h [1] | GI50 at 48 h [2] | GI50 [3] | GI50 [4] | GI50 [5] | pIC50 [6] | pIC50 [7] | Activity (TT [8]) | Activity [9] | Activity [10] | pIC50 [11] | pIC50 [12] | pIC50 [13] | pIC50 [14] | pIC50 [15] | GI50 [16] | GI50 [17] | Activity (TT [18]) | Activity [19] | Activity [20]
CC(C)n1nc(-c2cc(-c3ccc(F)cc3)on2)c2c(N)ncnc21 | 9.77 µM | > 10 µM | > 10 µM | > 10 µM | > 10 µM | 6.82 | – | – | – | – | – | – | – | – | – | – | – | – | – | –
Nc1ncnc2c1c(-c1cc(C3CC3)on1)nn2C1CCCCC1 | 32.5 µM | > 10 µM | 0.29 µM | 0.52 µM | 2 µM | 8.70 | 7.85 | – | – | – | – | – | – | – | – | – | – | – | – | –
CC(C)n1nc(-c2cc(-c3ccccn3)on2)c2c(N)ncnc21 | 1.63 µM | 5.3 µM | 9.26 µM | 1.11 µM | 0.7 µM | 6.04 | 5.23 | – | – | – | – | – | – | – | – | – | – | – | – | –
Nc1ncnc2[nH]nc(-c3cc(C4CC4)on3)c12 | 0.51 µM | > 10 µM | > 10 µM | 5.34 µM | > 10 µM | 7.28 | 6.45 | – | – | – | – | – | – | – | – | – | – | – | – | –
CC(C)n1nc(-c2cc(C3CCCC3)on2)c2c(N)ncnc21 | 11.5 µM | > 10 µM | > 10 µM | 7.12 µM | > 10 µM | 6.62 | 5.80 | – | – | – | – | – | – | – | – | – | – | – | – | –
CCc1cc(-c2nn(C(C)C)c3ncnc(N)c23)no1 | 28.6 µM | > 10 µM | 2.61 µM | 1.56 µM | 5.77 µM | 7.39 | 6.27 | – | – | – | – | – | – | – | – | – | – | – | – | –
CC(C)n1nc(-c2cc(Cc3ccccc3)on2)c2c(N)ncnc21 | 21.5 µM | > 10 µM | > 10 µM | > 10 µM | > 10 µM | 6.62 | 5.70 | – | – | – | – | – | – | – | – | – | – | – | – | –
CCCCCCCn1nc(-c2cc(C3CC3)on2)c2c(N)ncnc21 | 31.6 µM | > 10 µM | > 10 µM | > 10 µM | > 10 µM | 7.02 | 6.03 | – | – | – | – | – | – | – | – | – | – | – | – | –
CC(C)n1nc(-c2cc(C(C)(C)C)on2)c2c(N)ncnc21 | 24.7 µM | > 10 µM | > 10 µM | 6.12 µM | 7.31 µM | 6.68 | 5.68 | – | – | – | – | – | – | – | – | – | – | – | – | –
CC(C)n1nc(C#Cc2ccccc2)c2c(N)ncnc21 | 3.58 µM | 16.1 µM | 2.54 µM | 0.61 µM | 2.6 µM | – | 5.58 | 150 CFU | Non-toxic | Non-toxic | 7.85 | 7.12 | 7.24 | 5.50 | 7.27 | 0.35 µM | 5.43 µM | – | – | –
COc1cc2nccc(Oc3ccc(NC(=O)C4(C(=O)Nc5ccc(F)cc5)CC4)cc3)c2cc1OC [CABOZANTINIB] | 4.93 µM | – | 0.12 µM | 0.05 µM | 0.89 µM | – | – | – | – | – | – | – | – | – | – | 0.01 µM | 0.91 µM | <3 CFU | Toxic | Non-toxic
CC(C)(O)Cn1nc(-c2cc(C3CC3)on2)c2c(N)ncnc21 | 2.82 µM | > 10 µM | 4.25 µM | 1.77 µM | 6.75 µM | 7.17 | 6.66 | – | – | – | – | – | – | – | – | – | – | – | – | –
CC(C)n1nc(-c2cc(C3CCCCC3)on2)c2c(N)ncnc21 | 4.11 µM | > 10 µM | > 10 µM | 9.5 µM | 4.73 µM | 6.04 | – | – | – | – | – | – | – | – | – | – | – | – | – | –
Nc1ncnc2c1c(-c1cc(C3CC3)on1)nn2Cc1ccccc1 | 39.6 µM | > 10 µM | > 10 µM | > 10 µM | > 10 µM | 7.13 | 6.25 | – | – | – | – | – | – | – | – | – | – | – | – | –
Cn1nc(-c2cc(C3CC3)on2)c2c(N)ncnc21 | 28.7 µM | > 10 µM | 3.51 µM | 2.67 µM | 5.56 µM | 7.57 | 6.74 | – | – | – | – | – | – | – | – | – | – | – | – | –
CC(C)n1nc(/C=N/OCc2ccccc2)c2c(N)ncnc21 | 9.85 µM | > 10 µM | 9.27 µM | 7.41 µM | > 10 µM | 5.08 | – | – | – | – | – | – | – | – | – | – | – | – | – | –
Nc1ncnc2c1c(-c1cc(C3CC3)on1)nn2C1CCOCC1 | 32.9 µM | > 10 µM | 0.94 µM | 0.44 µM | 1.93 µM | 8.30 | 7.39 | – | – | – | – | – | – | – | – | – | – | – | – | –
CC(C)n1nc(/C=N/O)c2c(N)ncnc21 | 107 µM | > 10 µM | > 10 µM | > 10 µM | > 10 µM | 5.31 | 5.43 | – | – | – | – | – | – | – | – | – | – | – | – | –
CC(C)n1nc(-c2cc(-c3ccccc3)on2)c2c(N)ncnc21 | 5.72 µM | > 10 µM | > 10 µM | 3.46 µM | 4.97 µM | 6.72 | – | – | – | – | – | – | – | – | – | – | – | – | – | –
CC(C)c1cc(-c2nn(C(C)C)c3ncnc(N)c23)no1 | 23.7 µM | > 10 µM | 5.13 µM | 2.4 µM | 5.9 µM | 7.39 | 6.45 | – | – | – | – | – | – | – | – | – | – | – | – | –
CC(C)n1nc(C2=NOC(c3ccccc3)C2)c2c(N)ncnc21 (stereo unspecified) | 18.9 µM | > 10 µM | > 10 µM | 6.24 µM | > 10 µM | 6.23 | 5.25 | – | – | – | – | – | – | – | – | – | – | – | – | –
CC(C)n1nc(-c2ccon2)c2c(N)ncnc21 | 18.6 µM | > 10 µM | 7.92 µM | 3.21 µM | 8.94 µM | 6.67 | 6.04 | – | – | – | – | – | – | – | – | – | – | – | – | –
